In ChEMBL document CHEMBL1125972, “Synthesis of chemoreversible prodrugs of ARA-C” (Bioorg Med Chem Lett, 1991):

Test: Half life value was determined
Assay type: ADME

| half-life | SMILES |
| --- | --- |
| 42 h | CC(C)(NC(=O)[C@@H](N)Cc1ccc(OCc2ccccc2)cc1)C(=O)Nc1ccn(C2O[C@H](CO)[C@@H](O)[C@@H]2O)c(=O)n1 (stereo partly specified) |
| 360 h | CC(C)(NC(=O)CO)C(=O)Nc1ccn(C2O[C@H](CO)[C@@H](O)[C@@H]2O)c(=O)n1 (stereo partly specified) |
| 1.4 h | CC(=O)[O-].CC(C)(NC(=O)CO)C(=O)Nc1ccn(C2O[C@H](CO)[C@@H](O)[C@@H]2O)c(=O)n1.[Na+] (stereo partly specified) |
| 31 h | CC(=O)O.CC(C)(NC(=O)[C@@H](N)Cc1ccc(OCc2ccccc2)cc1)C(=O)Nc1ccn(C2O[C@H](CO)[C@@H](O)[C@@H]2O)c(=O)n1 (stereo partly specified) |
| 860 h | CC(=O)O.CC(C)(NC(=O)CO)C(=O)Nc1ccn(C2O[C@H](CO)[C@@H](O)[C@@H]2O)c(=O)n1 (stereo partly specified) |
| 0.3 h | CC(=O)[O-].CC(C)(NC(=O)[C@@H](N)Cc1ccc(OCc2ccccc2)cc1)C(=O)Nc1ccn(C2O[C@H](CO)[C@@H](O)[C@@H]2O)c(=O)n1.[Na+] (stereo partly specified) |
